Test results as given in paper PMC4511477 (Biochemistry, 2015).
Positions count from the first letter of the chain named. Names may count otherwise.

T1: GltPh (Pyrococcus horikoshii, UniProt O59010)
T1 sequence (O59010 1-417 limits assumed): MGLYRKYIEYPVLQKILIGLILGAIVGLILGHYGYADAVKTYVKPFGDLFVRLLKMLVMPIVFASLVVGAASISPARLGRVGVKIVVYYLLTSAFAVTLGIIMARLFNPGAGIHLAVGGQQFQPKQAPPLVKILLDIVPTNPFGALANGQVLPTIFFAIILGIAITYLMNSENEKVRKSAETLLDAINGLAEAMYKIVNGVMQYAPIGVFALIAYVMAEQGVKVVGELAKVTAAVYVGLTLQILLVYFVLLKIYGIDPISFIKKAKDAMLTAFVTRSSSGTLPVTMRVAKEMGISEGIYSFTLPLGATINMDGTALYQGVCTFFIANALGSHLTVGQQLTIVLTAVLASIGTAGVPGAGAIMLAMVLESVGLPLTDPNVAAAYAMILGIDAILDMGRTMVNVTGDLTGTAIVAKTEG

T2: semisynthetic GltPh (Pyrococcus horikoshii, UniProt O59010, M385C)
T2 sequence (O59010 1-417 M385C limits assumed): T1 sequence (O59010 1-417 limits assumed) with M385C

B1: semisynthetic GltPh transporter (wild type sequence, M385C at the ligation site) (natural protein, Pyrococcus horikoshii)
chain: MGLYRKYIEYPVLQKILIGLILGAIVGLILGHYGYADAVKTYVKPFGDLFVRLLKMLVMPIVFASLVVGAASISPARLGRVGVKIVVYYLLTSAFAVTLGIIMARLFNPGAGIHLAVGGQQFQPKQAPPLVKILLDIVPTNPFGALANGQVLPTIFFAIILGIAITYLMNSENEKVRKSAETLLDAINGLAEAMYKIVNGVMQYAPIGVFALIAYVMAEQGVKVVGELAKVTAAVYVGLTLQILLVYFVLLKIYGIDPISFIKKAKDAMLTAFVTRSSSGTLPVTMRVAKEMGISEGIYSFTLPLGATINMDGTALYQGVCTFFIANALGSHLTVGQQLTIVLTAVLASIGTAGVPGAGAIMLAMVLESVGLPLTDPNVAAAYACILGIDAILDMGRTMVNVTGDLTGTAIVAKTEGTGSG

Key:
GltPh = target: T1, GltPh; assay: […]-Asp uptake into proteoliposomes; type: biochemical; details: read-out: % inhibition at 10 μM
semisynthetic GltPh = target: T2, semisynthetic GltPh; assay: […]-Asp uptake into proteoliposomes; type: biochemical; details: read-out: % inhibition at 10 μM
cross-linking = target: the molecule itself; assay: cross-linking

Molecule	inhibition at 10 µM (GltPh) [%]	inhibition at 10 µM (semisynthetic GltPh) [%]	stoichiometry N (cross-linking)
NC(C(=O)O)C(OCc1ccccc1)C(=O)O (racemic) [TBOA]	31 ± 10	42 ± 4	
B1			3
